# Measured values from ChEMBL document CHEMBL4308906, “Design and synthesis of selective CYP1B1 inhibitor via dearomatization of α-naphthoflavone” (Bioorg Med Chem, 2019).
# How the values were obtained:
# Cytochrome P450 1B1 [1] = target: T1, Cytochrome P450 1B1 (Homo sapiens, UniProt Q16678); assay: Inhibition of human recombinant CYP1B1 using 7-ethoxyresorufin as substrate assessed as percent enzyme activity at 1 uM after 30 mins in presence of NADPH by EROD assay relative to control; design: scale not given: the % may be the effect or the level left; conditions: read-out: Activity
# T1 sequence (Q16678 whole entry): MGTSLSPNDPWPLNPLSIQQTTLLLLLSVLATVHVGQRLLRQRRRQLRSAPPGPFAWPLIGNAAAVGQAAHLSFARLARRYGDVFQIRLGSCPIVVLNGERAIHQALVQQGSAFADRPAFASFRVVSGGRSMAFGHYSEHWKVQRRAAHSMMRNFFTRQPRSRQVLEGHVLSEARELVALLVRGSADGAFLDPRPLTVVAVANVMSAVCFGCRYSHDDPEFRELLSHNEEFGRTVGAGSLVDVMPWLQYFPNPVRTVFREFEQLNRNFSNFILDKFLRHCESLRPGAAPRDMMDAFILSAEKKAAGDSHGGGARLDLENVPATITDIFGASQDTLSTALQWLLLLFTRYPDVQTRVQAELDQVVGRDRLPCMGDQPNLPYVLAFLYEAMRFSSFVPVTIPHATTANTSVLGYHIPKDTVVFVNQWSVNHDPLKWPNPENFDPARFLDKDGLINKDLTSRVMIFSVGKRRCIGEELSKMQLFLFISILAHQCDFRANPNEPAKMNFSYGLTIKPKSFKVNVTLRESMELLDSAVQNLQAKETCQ
# CYP1A1 = target: T2, CYP1A1 (Homo sapiens, UniProt P04798); assay: Inhibition of human recombinant CYP1A1 using 7-ethoxyresorufin as substrate assessed as percent enzyme activity at 1 uM after 15 mins in presence of NADPH by EROD assay relative to control; assay type: ADME; design: scale not given: the % may be the effect or the level left; conditions: recombinant CYP1A1, probe 7-ethoxyresorufin, read-out: Activity
# T2 sequence (P04798 whole entry): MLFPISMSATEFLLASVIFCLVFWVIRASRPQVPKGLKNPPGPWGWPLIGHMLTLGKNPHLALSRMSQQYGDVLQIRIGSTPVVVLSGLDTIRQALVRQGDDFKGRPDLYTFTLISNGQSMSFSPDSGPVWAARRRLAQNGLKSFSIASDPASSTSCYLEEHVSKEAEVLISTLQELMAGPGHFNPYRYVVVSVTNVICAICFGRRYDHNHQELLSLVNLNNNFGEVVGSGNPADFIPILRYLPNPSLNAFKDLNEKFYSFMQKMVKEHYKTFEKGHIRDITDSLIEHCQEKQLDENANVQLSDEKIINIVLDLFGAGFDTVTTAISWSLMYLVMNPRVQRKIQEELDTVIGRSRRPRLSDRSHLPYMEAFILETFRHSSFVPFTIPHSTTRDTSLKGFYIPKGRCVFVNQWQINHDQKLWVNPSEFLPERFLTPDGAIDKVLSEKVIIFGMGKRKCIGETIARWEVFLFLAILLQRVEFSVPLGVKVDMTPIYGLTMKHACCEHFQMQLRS
# CYP1A2 = target: T3, CYP1A2 (Homo sapiens, UniProt P05177); assay: Inhibition of human recombinant CYP1A2 using 7-ethoxyresorufin as substrate assessed as percent enzyme activity at 1 uM after 30 mins in presence of NADPH by EROD assay relative to control; assay type: ADME; design: scale not given: the % may be the effect or the level left; conditions: recombinant CYP1A2, probe 7-ethoxyresorufin, read-out: Activity
# T3 sequence (P05177 whole entry): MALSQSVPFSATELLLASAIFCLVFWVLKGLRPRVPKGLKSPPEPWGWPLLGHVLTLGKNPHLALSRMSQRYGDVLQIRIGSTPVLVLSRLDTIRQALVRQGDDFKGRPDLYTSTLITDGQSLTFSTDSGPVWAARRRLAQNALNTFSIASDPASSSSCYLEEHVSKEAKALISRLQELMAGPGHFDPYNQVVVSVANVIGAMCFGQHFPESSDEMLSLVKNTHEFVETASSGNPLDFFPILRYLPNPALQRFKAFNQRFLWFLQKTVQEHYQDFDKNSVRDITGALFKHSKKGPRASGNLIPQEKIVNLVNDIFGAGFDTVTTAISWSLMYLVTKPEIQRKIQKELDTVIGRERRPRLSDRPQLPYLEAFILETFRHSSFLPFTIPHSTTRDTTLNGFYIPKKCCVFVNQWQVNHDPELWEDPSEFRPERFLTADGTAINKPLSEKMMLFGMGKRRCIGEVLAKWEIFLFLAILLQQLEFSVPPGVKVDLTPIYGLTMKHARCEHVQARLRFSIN
# Cytochrome P450 1A1 = target: T4, Cytochrome P450 1A1 (Homo sapiens, UniProt P04798); assay: Inhibition of human recombinant CYP1A1 using 7-ethoxyresorufin as substrate after 15 mins in presence of NADPH by EROD assay; assay type: ADME
# T4 sequence (P04798 whole entry): T2 sequence (P04798 whole entry)
# [2] = Aqueous solubility of compound in 9:1 PBS/ethanol buffer by shake flask method; assay type: physicochemical
# [3] = Solubility of compound in pH 7.4 PBS by shake flask met; assay type: physicochemical; conditions: buffer
# Cytochrome P450 1B1 [4] = target: T1, Cytochrome P450 1B1; assay: Inhibition of human recombinant CYP1B1 using 7-ethoxyresorufin as substrate after 30 mins in presence of NADPH by EROD assay
# Cytochrome P450 1A2 = target: T5, Cytochrome P450 1A2 (Homo sapiens, UniProt P05177); assay: Inhibition of human recombinant CYP1A2 using 7-ethoxyresorufin as substrate after 30 mins in presence of NADPH by EROD assay; assay type: ADME
# T5 sequence (P05177 whole entry): T3 sequence (P05177 whole entry)
# Homo sapiens [5] = organism: Homo sapiens; assay: Selectivity ratio of IC50 for human recombinant CYP1A1 to IC50 for human recombinant CYP1B1
# Homo sapiens [6] = organism: Homo sapiens; assay: Selectivity ratio of IC50 for human recombinant CYP1A2 to IC50 for human recombinant CYP1B1
# Cytochrome P450 1B1 [7] = target: T1, Cytochrome P450 1B1; assay: Binding affinity to human C-terminal 4His-tagged CYP1B1 expressed in Escherichia coli DH5alpha assessed as spectral dissociation constant by spectrophotometric analysis; conditions: read-out: Ks
"activity at 0.5 h, 1 µM (Cytochrome P450 1B1 [1]) [%]","activity at 0.25 h, 1 µM (CYP1A1) [%]","activity at 0.5 h, 1 µM (CYP1A2) [%]",IC50 (Cytochrome P450 1A1) [nM],solubility thermodynamic [2] [µM],solubility [3],IC50 (Cytochrome P450 1B1 [4]) [nM],IC50 (Cytochrome P450 1A2) [nM],Ratio IC50 (Homo sapiens [5]),Ratio IC50 (Homo sapiens [6]),Kd (Cytochrome P450 1B1 [7]) [nM],SMILES
-11.3,0.4,-10.1,53.8,2.63,Insoluble,–,–,–,–,–,O=c1cc(-c2ccccc2)oc2c1ccc1ccccc12 [ALPHA-NAPHTHOFLAVONE]
-1.8,39.5,46.5,1040,–,–,135,1190,7.7,8.8,5400,[N-]=[N+]=N[C@H]1CC[C@H](c2cc(=O)c3ccc4ccccc4c3o2)CC1
-0.4,3,-4.5,13.6,–,–,13.4,36.4,1.02,2.7,2400,C=C=C[C@H]1CC[C@H](c2cc(=O)c3ccc4ccccc4c3o2)CC1
-15.3,39.6,29.6,525,2.67,–,4.4,667,120,153,2600,[N-]=[N+]=N[C@H]1CC[C@@H](c2cc(=O)c3ccc4ccccc4c3o2)CC1
25.4,51.5,51.8,–,9.65,–,540,–,–,–,5900,O=c1cc(C2CCCCC2)oc2c1ccc1ccccc12
-4.7,1.1,45.4,15.9,–,–,29.4,991,0.54,33.7,6700,CC(=O)S[C@H]1CC[C@H](c2cc(=O)c3ccc4ccccc4c3o2)CC1
-1.3,3.8,42.7,65,–,–,24.3,–,2.7,–,4000,CC(=O)S[C@H]1CC[C@@H](c2cc(=O)c3ccc4ccccc4c3o2)CC1
3.7,6.3,10.4,43,–,–,43.4,909,0.99,21,–,O=c1cc(-c2ccc(O)cc2)oc2c1ccc1ccccc12
2.2,6.3,22.3,216,–,–,23.5,433,9.2,18.5,3900,[N-]=[N+]=NCC1CCC(c2cc(=O)c3ccc4ccccc4c3o2)CC1 (mixture of isomers)
1.8,1.3,0.6,146,–,–,40.3,689,3.6,17.1,8900,O=c1cc([C@H]2CC[C@H](S)CC2)oc2c1ccc1ccccc12
-0.5,2.3,-13.6,9.5,< 1,–,2.6,93.8,3.6,35.6,900,[N-]=[N+]=Nc1ccc(-c2cc(=O)c3ccc4ccccc4c3o2)cc1
3.1,5.5,4.3,33,–,–,68.1,–,0.48,–,25400,C=C=C[C@H]1CC[C@@H](c2cc(=O)c3ccc4ccccc4c3o2)CC1
0.7,1.4,6.9,27.1,–,–,1.8,74.7,15.5,42.8,800,[N-]=[N+]=Nc1cccc(-c2cc(=O)c3ccc4ccccc4c3o2)c1
